# According to US20250000932A1, “DIAGNOSIS AND TREATMENT OF VA[…]” (University Of Maryland, Baltimore, priority 2023, published 2025):
# System: patients with catecholamine-resistant vasodilatory shock
# Test: ATHOS-3: safety (adverse events, serious adverse events)
# Type: in vivo, human
# Settings: patients with elevated renin concentrations at baseline
# Procedure: The use of Angiotensin II for the Treatment of High-Output Shock 3 (ATHOS-3) study has been described by Khanna et al. and Chawla et al. In brief, adults with vasodilatory shock despite volume resuscitation with 2:25 mL/kg and high-dose vasopressors were randomly assigned 1:1 to receive synthetic human angiotensin II (La Jolla Pharmaceutical Company™) or saline placebo plus standard vasopressors. Randomization was stratified according to MAP at screening and Acute Physiology and Chronic Health Evaluation II (APACHE II) score.
# The study drug infusion started at 20 ng/kg/min and was adjusted during the first 3 hours to increase the MAP to 2:75 mm Hg while keeping other vasopressors constant. Thereafter, the study drug and other vasopressors were adjusted at the discretion of the treating ICU team to maintain a MAP between 65 and 75 mm Hg. At 48 hours, the infusion was discontinued according to a protocol-specified tapering process. However, continuation was allowed for up to 7 days at the discretion of the ICU team.
# Safety was evaluated by assessment of treatment-emergent adverse events, serious adverse events, and adverse event-related drug discontinuations.
smiles,measurement,value
"CC[C@H](C)[C@H](NC(=O)[C@H](Cc1ccc(O)cc1)NC(=O)[C@@H](NC(=O)[C@H](CCCNC(=N)N)NC(=O)[C@@H](N)CC(=O)O)C(C)C)C(=O)N[C@@H](Cc1cnc[nH]1)C(=O)N1CCC[C@H]1C(=O)N[C@@H](Cc1ccccc1)C(=O)O [Angiotensin II, angiotensin II]",adverse events or serious adverse events vs placebo,no significant difference
